For one assay, the target named is Human CDK7/CycH/MAT1 (Homo sapiens (Human), UniProt P50613). Kind of assay: Radiometric protein kinase assay (33PanQinase Activity Assay), CDK7. Format: biochemical. The settings on record: ATP 3 μM.
The target in another assay is Human CDK12 wt/CycK (Homo sapiens (Human), UniProt Q9NYV4). Kind of assay: Radiometric protein kinase assay (33PanQinase Activity Assay), CDK12. The class given is biochemical. The settings on record: for CDK7/CDK12: ratio of CDK7 IC50 to CDK12 IC50, greater than 1 indicates selectivity for CDK12. In a few lines:
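Radiometric 33P assay: ATP, test compound (in 10% DMSO) and premixed substrate/enzyme incubated 60 min at 30 °C, stopped with 2% H3PO4. 33Pi incorporation counted by scintillation; least-squares curve fit.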

For assay [1], the system named is A673 cells. Kind of assay: Cytotoxicity in A673 cells (Cell Titer Glo viability). Format: cell-based. The conditions noted are these: for Ratio of Biochemical Potency:Cellular Potency: CDK12 IC50 / A673 IC50; for IC50: Homo sapiens. In a few lines: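 Cells plated at 1.2×10^5 per well in DMEM+10% FBS, 24 h, then compound series ± MLN4924 (30 nM final) in 0.1% DMSO for 72 h. Viability by Cell Titer Glo luminescence, normalised to vehicle (100%) and 0.1% Triton x-100 (0%); MLN4924 curves normalised to MLN4924-treated controls.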

Assay [2] concerns A673 cells. Briefly: A673 cytotoxic potency shift in the presence of MLN4924 (cyclin K degrader activity). Format: cell-based. The settings on record: 30 nM MLN4924, 72 hours. As for the experimental part: Inhibition of cell viability by test compounds was assessed in A673 cells (ATCC CRL-1598) and the compound mode of action was attributed to a “molecular-glue”/cyclin K-degradation mechanism by probing for a loss of compound potency in the presence of the NEDD8-activating enzyme inhibitor, MLN4924.
Cells were plated in 96-well plates at a density of […] viable cells per well in 200 μL fully supplemented growth medium (DMEM+10% heat inactivated foetal bovine serum) and incubated for 24 hours in standard tissue culture conditions. Compounds, including MLN4924, were solubilised in DMSO and then diluted in fully supplemented growth medium at 2× their final assay concentration such that the final DMSO concentration was 0.1%. Growth medium in the assay plates was replaced with 50 μL of growth medium containing 2×MLN4924 (final assay concentration: 30 nM, where tested) or vehicle only and 50 μL of growth medium containing a 2× compound concentration series or vehicle only such that each compound was at 1× final assay concentration in 100 μL.
Cells were then incubated for 72 hours in standard tissue culture conditions before viability was assessed using 50 μL Cell Titer Glo reagent (Promega) per well and luminescence measured on an EnVision plate reader. Data were normalised to vehicle control (100%) and cells treated with 0.1% Triton x-100 for 1 hour before viability measurement (0%; full cell kill). IC50 values were determined using a semi-logistic curve fit with parameters “top” fixed at 100% and “bottom” at or below 0%. Viability curves generated in the presence of MLN4924 were normalised and fixed to controls treated with MLN4924.

The mark [3] stands for this setting: ATP 0.3 μM, read-out: CDK12 IC50.
Setting [4] is: read-out: CKD12 Biochemical Potency IC50.
The mark [5] stands for this setting: A673, read-out: Cellular Potency IC50 (nM) (in A673 cells).
Setting [6] is: A673 cells, 72 hours, read-out: A673 IC50.

The structures appear in SMILES notation. Like-named read-outs stand apart in the source and are kept apart here.

Chain of Human CDK12 wt/CycK (Q9NYV4 whole entry): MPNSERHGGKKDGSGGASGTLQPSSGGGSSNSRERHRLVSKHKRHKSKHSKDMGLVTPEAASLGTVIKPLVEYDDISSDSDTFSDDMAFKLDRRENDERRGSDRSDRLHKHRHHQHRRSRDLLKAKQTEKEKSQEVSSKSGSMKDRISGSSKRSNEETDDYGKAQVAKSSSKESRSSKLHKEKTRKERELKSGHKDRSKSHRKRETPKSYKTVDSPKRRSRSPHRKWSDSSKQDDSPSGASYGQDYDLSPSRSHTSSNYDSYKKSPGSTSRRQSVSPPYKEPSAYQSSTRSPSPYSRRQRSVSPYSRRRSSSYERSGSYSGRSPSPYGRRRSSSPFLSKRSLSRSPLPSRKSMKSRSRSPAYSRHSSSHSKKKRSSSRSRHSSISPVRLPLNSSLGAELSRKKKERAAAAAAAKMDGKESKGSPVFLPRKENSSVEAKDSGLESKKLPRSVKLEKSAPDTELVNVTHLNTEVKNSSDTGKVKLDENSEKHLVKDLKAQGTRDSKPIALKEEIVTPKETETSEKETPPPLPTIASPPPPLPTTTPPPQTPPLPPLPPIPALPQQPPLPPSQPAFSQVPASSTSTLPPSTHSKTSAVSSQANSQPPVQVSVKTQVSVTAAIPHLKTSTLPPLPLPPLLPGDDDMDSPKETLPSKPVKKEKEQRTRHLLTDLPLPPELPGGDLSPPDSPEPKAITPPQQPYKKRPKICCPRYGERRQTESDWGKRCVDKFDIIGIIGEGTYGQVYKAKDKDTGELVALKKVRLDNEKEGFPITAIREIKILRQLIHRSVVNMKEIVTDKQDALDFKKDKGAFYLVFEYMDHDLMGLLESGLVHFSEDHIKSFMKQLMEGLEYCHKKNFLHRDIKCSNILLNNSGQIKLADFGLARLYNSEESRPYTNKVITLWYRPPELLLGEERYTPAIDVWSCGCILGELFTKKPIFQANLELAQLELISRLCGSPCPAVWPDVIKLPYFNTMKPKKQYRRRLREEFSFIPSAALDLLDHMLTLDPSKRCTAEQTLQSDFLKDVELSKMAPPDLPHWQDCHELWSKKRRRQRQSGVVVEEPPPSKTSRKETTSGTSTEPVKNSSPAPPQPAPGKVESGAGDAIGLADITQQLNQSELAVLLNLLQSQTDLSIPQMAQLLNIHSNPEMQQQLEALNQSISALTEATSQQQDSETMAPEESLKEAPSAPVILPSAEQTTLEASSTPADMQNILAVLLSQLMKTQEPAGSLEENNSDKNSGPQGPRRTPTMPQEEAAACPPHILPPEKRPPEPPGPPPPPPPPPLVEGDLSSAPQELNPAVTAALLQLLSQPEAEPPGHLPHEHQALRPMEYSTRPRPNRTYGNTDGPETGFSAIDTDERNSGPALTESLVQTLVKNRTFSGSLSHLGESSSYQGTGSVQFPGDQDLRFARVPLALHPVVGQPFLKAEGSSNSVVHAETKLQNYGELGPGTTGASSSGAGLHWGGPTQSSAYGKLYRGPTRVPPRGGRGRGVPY
Chain of Human CDK12 wt/CycK (O75909 whole entry partner): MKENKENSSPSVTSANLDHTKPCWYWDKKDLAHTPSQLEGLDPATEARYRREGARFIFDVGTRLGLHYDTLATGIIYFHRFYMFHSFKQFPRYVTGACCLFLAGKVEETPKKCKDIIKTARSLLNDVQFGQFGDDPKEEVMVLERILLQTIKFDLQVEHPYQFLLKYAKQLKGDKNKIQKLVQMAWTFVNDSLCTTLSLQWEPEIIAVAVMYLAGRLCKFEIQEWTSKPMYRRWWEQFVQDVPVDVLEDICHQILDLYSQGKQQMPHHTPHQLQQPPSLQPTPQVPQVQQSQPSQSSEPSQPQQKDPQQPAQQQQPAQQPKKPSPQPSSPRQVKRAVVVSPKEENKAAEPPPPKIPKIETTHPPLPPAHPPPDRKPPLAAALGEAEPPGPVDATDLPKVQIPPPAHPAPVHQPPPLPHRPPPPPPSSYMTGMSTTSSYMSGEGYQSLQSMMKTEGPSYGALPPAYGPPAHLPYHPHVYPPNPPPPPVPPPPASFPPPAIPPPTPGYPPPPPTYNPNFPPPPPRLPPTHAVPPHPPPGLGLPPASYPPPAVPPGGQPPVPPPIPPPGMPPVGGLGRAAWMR
Chain of Human CDK7/CycH/MAT1 (P50613 whole entry): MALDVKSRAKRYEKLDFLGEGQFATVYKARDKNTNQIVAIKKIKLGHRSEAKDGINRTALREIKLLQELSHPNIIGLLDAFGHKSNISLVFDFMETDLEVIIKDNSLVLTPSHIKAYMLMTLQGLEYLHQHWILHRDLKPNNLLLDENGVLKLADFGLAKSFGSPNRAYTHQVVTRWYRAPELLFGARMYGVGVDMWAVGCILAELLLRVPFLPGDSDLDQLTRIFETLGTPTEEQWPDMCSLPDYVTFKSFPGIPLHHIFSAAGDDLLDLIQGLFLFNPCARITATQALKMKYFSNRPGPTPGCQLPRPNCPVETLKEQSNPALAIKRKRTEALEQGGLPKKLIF
Chain of Human CDK7/CycH/MAT1 (P51946 whole entry partner): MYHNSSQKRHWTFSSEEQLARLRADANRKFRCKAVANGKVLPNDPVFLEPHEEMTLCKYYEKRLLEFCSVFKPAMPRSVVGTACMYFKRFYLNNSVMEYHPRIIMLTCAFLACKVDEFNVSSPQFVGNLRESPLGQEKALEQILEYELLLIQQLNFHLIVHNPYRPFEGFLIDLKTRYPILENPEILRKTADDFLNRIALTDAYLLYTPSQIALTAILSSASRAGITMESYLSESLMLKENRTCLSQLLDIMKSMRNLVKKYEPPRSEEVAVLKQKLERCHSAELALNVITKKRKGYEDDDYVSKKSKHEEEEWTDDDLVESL
Chain of Human CDK7/CycH/MAT1 (P51948 whole entry partner): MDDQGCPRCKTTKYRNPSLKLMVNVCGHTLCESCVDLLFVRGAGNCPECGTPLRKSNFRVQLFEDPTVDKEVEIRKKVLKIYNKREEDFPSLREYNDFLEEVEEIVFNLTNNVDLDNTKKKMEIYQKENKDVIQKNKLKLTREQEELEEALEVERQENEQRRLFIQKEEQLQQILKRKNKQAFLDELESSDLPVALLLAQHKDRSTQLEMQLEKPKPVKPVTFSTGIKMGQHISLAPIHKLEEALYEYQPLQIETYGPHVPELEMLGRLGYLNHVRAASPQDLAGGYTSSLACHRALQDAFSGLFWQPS

What is called IC50 is the point on the concentration scale where inhibition reaches its midpoint. `O[C@H]1CNCC[C@@H]1CNc1cc(NCc2ccc(-n3cccn3)cc2)n2ncc(C3CC3)c2n1` [PPA-009]: the IC50 on Human CDK7/CycH/MAT1 is 212 nM; on Human CDK12 wt/CycK (setting [3]) it was 55 nM; on Human CDK12 wt/CycK (setting [4]), 55 nM; in the assay with A673 cells [1] (setting [5]), 1.3 nM; in the assay with A673 cells [1] (setting [6]) it was 1.3 nM. At Human CDK12 wt/CycK, the CDK7/CDK12 was 3.9. For the same molecule, in the assay on A673 cells [1], the “Ratio of Biochemical Potency:Cellular Potency” value (from here on “Ratio”) stood at 42.31. For the same molecule, in the assay with A673 cells [2], the “Cyclin K Degrader Activity (A673 potency shift + MLN4924)” value is “++ (>2 and ≤5 fold change.)”.
As to `c1ccc(-c2ccc(CNc3cc(N4CC5CC(C4)N5)nc4c(C5CC5)cnn34)cc2)nc1` [PPA-080], the IC50 worked out at 1210 nM on Human CDK7/CycH/MAT1; 152 nM at Human CDK12 wt/CycK (setting [3]); 152 nM on Human CDK12 wt/CycK (setting [4]); 12.6 nM in the assay with A673 cells [1] (setting [5]); 12.6 nM in the assay with A673 cells [1] (setting [6]). At Human CDK12 wt/CycK, the CDK7/CDK12 is recorded as 8.0. Also, in the assay on A673 cells [1], the “Ratio” value is on record as 12.06. For the same molecule, the “Cyclin K Degrader Activity (A673 potency shift + MLN4924)” value with A673 cells [2] was “+++ (>5 fold change.)”.
For the molecule `Fc1cc(-c2ccccn2)ccc1CNc1cc(N[C@H]2CCNC2)nc2c(C3CC3)cnn12` [PPA-072], the IC50 on Human CDK7/CycH/MAT1 amounted to 1000 nM; on Human CDK12 wt/CycK (setting [3]) it was 34 nM; on Human CDK12 wt/CycK (setting [4]), 34 nM; with A673 cells [1] (setting [5]), 0.8 nM; with A673 cells [1] (setting [6]), 0.8 nM. Moreover, the CDK7/CDK12 on Human CDK12 wt/CycK came out at 29.4. The “Ratio” value in the assay with A673 cells [1] is reported as 42.50. In addition, in the assay with A673 cells [2], the “Cyclin K Degrader Activity (A673 potency shift + MLN4924)” value was “+++ (>5 fold change.)”.
`CO[C@H]1CNCC[C@@H]1CNc1cc(NCc2ccc(-c3ccccn3)cc2)n2ncc(C3CC3)c2n1` [PPA-087]: the IC50 at Human CDK7/CycH/MAT1 stood at 1630 nM; at Human CDK12 wt/CycK (setting [3]), 503 nM; on Human CDK12 wt/CycK (setting [4]), 503 nM; in the assay on A673 cells [1] (setting [5]) it was 8.7 nM; in the assay on A673 cells [1] (setting [6]), 8.7 nM. Also, the CDK7/CDK12 on Human CDK12 wt/CycK is given as 3.2. In the assay on A673 cells [1], the “Ratio” value was 57.82. Besides, in the assay with A673 cells [2], the “Cyclin K Degrader Activity (A673 potency shift + MLN4924)” value is on record as “+++ (>5 fold change.)”.
Consider `c1ccc(-c2ccc(CNc3cc(OCC4CNC4)nc4c(C5CC5)cnn34)cc2)nc1` [PPA-055], for which the IC50 on Human CDK7/CycH/MAT1 was found to be 2390 nM; on Human CDK12 wt/CycK (setting [3]), 134 nM; at Human CDK12 wt/CycK (setting [4]), 134 nM; in the assay with A673 cells [1] (setting [5]), 24.9 nM; with A673 cells [1] (setting [6]), 24.9 nM. The CDK7/CDK12 at Human CDK12 wt/CycK came to 17.8. Also, the “Ratio” value with A673 cells [1] was determined as 5.38. Moreover, the “Cyclin K Degrader Activity (A673 potency shift + MLN4924)” value in the assay on A673 cells [2] is “++ (>2 and ≤5 fold change.)”.
On to `O[C@H]1CNCC[C@@H]1CNc1cc(NCc2ccc(-c3ccccn3)cc2F)n2ncc(C3CC3)c2n1` [PPA-020], for which the IC50 against Human CDK7/CycH/MAT1 came to 311 nM; at Human CDK12 wt/CycK (setting [3]), 99 nM; on Human CDK12 wt/CycK (setting [4]) it was 99 nM; with A673 cells [1] (setting [5]), 3.3 nM; in the assay with A673 cells [1] (setting [6]), 3.3 nM. Further, at Human CDK12 wt/CycK, the CDK7/CDK12 amounted to 3.1. Further, in the assay with A673 cells [1], the “Ratio” value is 30.00. For the same molecule, in the assay on A673 cells [2], the “Cyclin K Degrader Activity (A673 potency shift + MLN4924)” value is listed as “+++ (>5 fold change.)”.
As to `N#Cc1cnn2c(NCc3ccc(-c4ccccc4)cc3F)cc(N[C@H]3CCNC3)nc12` [PPA-071], the IC50 worked out at 1550 nM against Human CDK7/CycH/MAT1; 40 nM at Human CDK12 wt/CycK (setting [3]); 40 nM at Human CDK12 wt/CycK (setting [4]); 1.4 nM with A673 cells [1] (setting [5]); 1.4 nM with A673 cells [1] (setting [6]). Also, on Human CDK12 wt/CycK, the CDK7/CDK12 was determined as 38.8. Further, in the assay on A673 cells [1], the “Ratio” value stood at 28.57. In addition, the “Cyclin K Degrader Activity (A673 potency shift + MLN4924)” value in the assay on A673 cells [2] was “+++ (>5 fold change.)”.
`c1ccc(-c2ccc(CNc3cc(O[C@H]4CCNC4)nc4c(C5CC5)cnn34)cc2)nc1` [PPA-065]: the IC50 against Human CDK7/CycH/MAT1 came to 284 nM; on Human CDK12 wt/CycK (setting [3]), 29 nM; at Human CDK12 wt/CycK (setting [4]), 29 nM; in the assay on A673 cells [1] (setting [5]) it was 3.2 nM; in the assay with A673 cells [1] (setting [6]), 3.2 nM. Also, the CDK7/CDK12 at Human CDK12 wt/CycK is 9.8. The “Ratio” value with A673 cells [1] was 9.06. Moreover, the “Cyclin K Degrader Activity (A673 potency shift + MLN4924)” value with A673 cells [2] is listed as “+++ (>5 fold change.)”.

The values above are taken from patent US20240383900A1, “SUBSTITUTED PYRAZOLO [1,5-A]PYRIMIDINE-7-AMINE COMPOUNDS AS CDK INHIBITORS AND THEIR THERAPEUTIC USE” (Carrick Therapeutics Limited, priority 2021, published 2024).
